From patent publication US10835531B1, “Methods for predicting drug responsiveness in cancer patients” (Oncology Venture ApS, priority 2019, dated 2020)

Legend:
NCl-H460 = assay: NCI60 panel growth inhibition; type: cell-based; settings: Homo sapiens; NCl-H460 cell line
Experimental: (§1) The human tumor cell lines of the cancer screening panel may be grown in RPMI 1640 medium containing 5% fetal bovine serum and 2 mM L-glutamine. Cells may be inoculated into 96 well microtiter plates in 100 μL at plating densities ranging from 5,000 to 40,000 cells/well depending on the doubling time of individual cell lines. After cell inoculation, the microtiter plates may be incubated at 37° C., 5% CO2, 95% air and 100% relative humidity for 24 hours prior to addition of experimental compounds. After 24 hours, two plates of each cell line may be fixed in situ with TCA, to represent a measurement of the cell population for each cell line at the time of compound addition (Tz). Experimental compounds may be solubilized in dimethyl sulfoxide at 400-fold the desired final maximum test concentration and stored frozen prior to use. At the time of compound (e.g., dovitinib or a pharmaceutically acceptable salt thereof) addition, an aliquot of frozen concentrate may be thawed and diluted to twice the desired final maximum test concentration with complete medium containing 50 μg/ml Gentamicin. Additional four, 10-fold or ½ log serial dilutions are made to provide a total of five concentrations plus control. […] Following compound (e.g., dovitinib or a pharmaceutically acceptable salt thereof) addition, the plates may be incubated for an additional 48 h at 37° C., 5% CO2, 95% air, and 100% relative humidity. For adherent cells, the assay may be terminated by the addition of cold TCA. Cells may be fixed in situ by the gentle addition of 50 μl of cold 50% (w/v) TCA (final concentration, 10% TCA) and incubated for 60 minutes at 4° C. The supernatant may be discarded, and the plates may be washed five times with tap water and air-dried. Sulforhodamine B (SRB) solution (100 μl) at 0.4% (w/v) in 1% acetic acid may be added to each well, and plates are incubated for 10 minutes at room temperature. After staining, unbound dye may be removed by washing five times with 1% acetic acid and the plates may be air-dried. […] Values are calculated for each of these three parameters if the level of activity is reached; however, if the effect is not reached or is exceeded, the value for that parameter is expressed as greater or less than the maximum or minimum concentration tested.

OVCAR-4 = assay: NCI60 panel growth inhibition; type: cell-based; settings: Homo sapiens; OVCAR-4 cell line
Experimental: as §1

A498 = assay: NCI60 panel growth inhibition; type: cell-based; settings: Homo sapiens; A498 cell line
Experimental: as §1

MOLT-4 = assay: NCI60 panel growth inhibition; type: cell-based; settings: Homo sapiens; MOLT-4 cell line
Experimental: as §1

DU-145 = assay: NCI60 panel growth inhibition; type: cell-based; settings: Homo sapiens; DU-145 cell line
Experimental: as §1

MALME-3M = assay: NCI60 panel growth inhibition; type: cell-based; settings: Homo sapiens; MALME-3M cell line
Experimental: as §1

SK-MEL-2 = assay: NCI60 panel growth inhibition; type: cell-based; settings: Homo sapiens; SK-MEL-2 cell line
Experimental: as §1

NCl-H226 = assay: NCI60 panel growth inhibition; type: cell-based; settings: Homo sapiens; NCl-H226 cell line
Experimental: as §1

EKVX = assay: NCI60 panel growth inhibition; type: cell-based; settings: Homo sapiens; EKVX cell line
Experimental: as §1

SNB-75 = assay: NCI60 panel growth inhibition; type: cell-based; settings: Homo sapiens; SNB-75 cell line
Experimental: as §1

TK-10 = assay: NCI60 panel growth inhibition; type: cell-based; settings: Homo sapiens; TK-10 cell line
Experimental: as §1

A549/ATCC = assay: NCI60 panel growth inhibition; type: cell-based; settings: Homo sapiens; A549/ATCC cell line
Experimental: as §1

SK-MEL-5 = assay: NCI60 panel growth inhibition; type: cell-based; settings: Homo sapiens; SK-MEL-5 cell line
Experimental: as §1

U251 = assay: NCI60 panel growth inhibition; type: cell-based; settings: Homo sapiens, U-251; U251 cell line
Experimental: as §1

HOP-62 = assay: NCI60 panel growth inhibition; type: cell-based; settings: Homo sapiens; HOP-62 cell line
Experimental: as §1

CAKI-1 = assay: NCI60 panel growth inhibition; type: cell-based; settings: Homo sapiens; CAKI-1 cell line
Experimental: as §1

T-47D = assay: NCI60 panel growth inhibition; type: cell-based; settings: Homo sapiens, T47D; T-47D cell line
Experimental: as §1

OVCAR-8 = assay: NCI60 panel growth inhibition; type: cell-based; settings: Homo sapiens; OVCAR-8 cell line
Experimental: as §1

SNB-19 = assay: NCI60 panel growth inhibition; type: cell-based; settings: Homo sapiens; SNB-19 cell line
Experimental: as §1

NCl-H322M = assay: NCI60 panel growth inhibition; type: cell-based; settings: Homo sapiens; NCl-H322M cell line
Experimental: as §1

K-562 = assay: NCI60 panel growth inhibition; type: cell-based; settings: Homo sapiens, K562; K-562 cell line
Experimental: as §1

UACC-257 = assay: NCI60 panel growth inhibition; type: cell-based; settings: Homo sapiens; UACC-257 cell line
Experimental: as §1

SW-620 = assay: NCI60 panel growth inhibition; type: cell-based; settings: Homo sapiens; SW-620 cell line
Experimental: as §1

RXF 393 = assay: NCI60 panel growth inhibition; type: cell-based; settings: Homo sapiens; RXF 393 cell line
Experimental: as §1

SN12C = assay: NCI60 panel growth inhibition; type: cell-based; settings: Homo sapiens; SN12C cell line
Experimental: as §1

OVCAR-5 = assay: NCI60 panel growth inhibition; type: cell-based; settings: Homo sapiens; OVCAR-5 cell line
Experimental: as §1

ACHN = assay: NCI60 panel growth inhibition; type: cell-based; settings: Homo sapiens; ACHN cell line
Experimental: as §1

MDA-MB-468 = assay: NCI60 panel growth inhibition; type: cell-based; settings: Homo sapiens; MDA-MB-468 cell line
Experimental: as §1

HT29 = assay: NCI60 panel growth inhibition; type: cell-based; settings: Homo sapiens, HT-29; HT29 cell line
Experimental: as §1

NCl/ADR-RES = assay: NCI60 panel growth inhibition; type: cell-based; settings: Homo sapiens; NCl/ADR-RES cell line
Experimental: as §1

COLO 205 = assay: NCI60 panel growth inhibition; type: cell-based; settings: Homo sapiens; COLO 205 cell line
Experimental: as §1

PC-3 = assay: NCI60 panel growth inhibition; type: cell-based; settings: Homo sapiens; PC-3 cell line
Experimental: as §1

SR = assay: NCI60 panel growth inhibition; type: cell-based; settings: Homo sapiens; SR cell line
Experimental: as §1

HOP-92 = assay: NCI60 panel growth inhibition; type: cell-based; settings: Homo sapiens; HOP-92 cell line
Experimental: as §1

M14 = assay: NCI60 panel growth inhibition; type: cell-based; settings: Homo sapiens; M14 cell line
Experimental: as §1

786-0 = assay: NCI60 panel growth inhibition; type: cell-based; settings: Homo sapiens; 786-0 cell line
Experimental: as §1

HCT-116 = assay: NCI60 panel growth inhibition; type: cell-based; settings: Homo sapiens; HCT-116 cell line
Experimental: as §1

UO-31 = assay: NCI60 panel growth inhibition; type: cell-based; settings: Homo sapiens; UO-31 cell line
Experimental: as §1

IGROV1 = assay: NCI60 panel growth inhibition; type: cell-based; settings: Homo sapiens, IGROV-1; IGROV1 cell line
Experimental: as §1

HS 578T = assay: NCI60 panel growth inhibition; type: cell-based; settings: Homo sapiens; HS 578T cell line
Experimental: as §1

NCl-H23 = assay: NCI60 panel growth inhibition; type: cell-based; settings: Homo sapiens; NCl-H23 cell line
Experimental: as §1

SF-539 = assay: NCI60 panel growth inhibition; type: cell-based; settings: Homo sapiens; SF-539 cell line
Experimental: as §1

OVCAR-3 = assay: NCI60 panel growth inhibition; type: cell-based; settings: Homo sapiens; OVCAR-3 cell line
Experimental: as §1

UACC-62 = assay: NCI60 panel growth inhibition; type: cell-based; settings: Homo sapiens; UACC-62 cell line
Experimental: as §1

LOX IMVI = assay: NCI60 panel growth inhibition; type: cell-based; settings: Homo sapiens; LOX IMVI cell line
Experimental: as §1

SK-OV-3 = assay: NCI60 panel growth inhibition; type: cell-based; settings: Homo sapiens; SK-OV-3 cell line
Experimental: as §1

NCl-H522 = assay: NCI60 panel growth inhibition; type: cell-based; settings: Homo sapiens; NCl-H522 cell line
Experimental: as §1

MCF7 = assay: NCI60 panel growth inhibition; type: cell-based; settings: Homo sapiens; MCF7 cell line
Experimental: as §1

SF-268 = assay: NCI60 panel growth inhibition; type: cell-based; settings: Homo sapiens; SF-268 cell line
Experimental: as §1

BT-549 = assay: NCI60 panel growth inhibition; type: cell-based; settings: Homo sapiens; BT-549 cell line
Experimental: as §1

MDA-MB-435 = assay: NCI60 panel growth inhibition; type: cell-based; settings: Homo sapiens; MDA-MB-435 cell line
Experimental: as §1

MDA-MB-231/ATCC = assay: NCI60 panel growth inhibition; type: cell-based; settings: Homo sapiens; MDA-MB-231/ATCC cell line
Experimental: as §1

CCRF-CEM = assay: NCI60 panel growth inhibition; type: cell-based; settings: Homo sapiens; CCRF-CEM cell line
Experimental: as §1

HCC-2998 = assay: NCI60 panel growth inhibition; type: cell-based; settings: Homo sapiens; HCC-2998 cell line
Experimental: as §1

HCT-15 = assay: NCI60 panel growth inhibition; type: cell-based; settings: Homo sapiens; HCT-15 cell line
Experimental: as §1

SK-MEL-28 = assay: NCI60 panel growth inhibition; type: cell-based; settings: Homo sapiens; SK-MEL-28 cell line
Experimental: as §1

SF-295 = assay: NCI60 panel growth inhibition; type: cell-based; settings: Homo sapiens; SF-295 cell line
Experimental: as §1

KM12 = assay: NCI60 panel growth inhibition; type: cell-based; settings: Homo sapiens; KM12 cell line
Experimental: as §1

RPMI-8226 = assay: NCI60 panel growth inhibition; type: cell-based; settings: Homo sapiens; RPMI-8226 cell line
Experimental: as §1

[1] = test system: patients with RCC, GIST, endometrial cancer, HCC or breast cancer; assay: Clinical response rate as a function of DRP cutoff, all five cohorts of Examples 2-6; type: in vivo, human
Source text: Gene expression data (Affymetrix) and clinical response data was obtained from 73 patients in the dovitinib arm. The DRP was applied to calculate a score for each patient (mean of genes in Table 2 minus mean of genes in Table 3). The score for each patient was compared to a reference population with the same diagnosis. For the reference population the dovitinib and sorafenib arms were combined (N=148). This allowed the calculation of a percentile score for each patient. Patients were grouped according to RECIST v1.1 response (centrally assessed) and included in FIG. 1.
Gene expression data (Affymetrix) and clinical response data was obtained from 14 patients. The DRP was applied to calculate a score for each patient (mean of genes in Table 2 minus mean of genes in Table 3). The score for each patient was compared to a reference population with the same diagnosis. For the reference population public data sets were downloaded from the GEO database (GSE20708, GSE17743, GSE8167, N=83). This allowed the calculation of a percentile score for each patient. Patients were grouped according to RECIST v1.1 response (locally assessed, no central assessment) and included in FIG. 1.
Gene expression data (Affymetrix) and clinical response data was obtained from 29 patients. The DRP was applied to calculate a score for each patient (mean of genes in Table 2 minus mean of genes in Table 3). The score for each patient was compared to a reference population with the same diagnosis. For the reference population a public data set was downloaded from the GEO database (GSE17025, N=91). This allowed the calculation of a percentile score for each patient. Patients were grouped according to RECIST v1.1 response (central assessment) and included in FIG. 1.
Gene expression data (Affymetrix) and clinical response data was obtained from 6 patients in the dovitinib arm. The DRP was applied to calculate a score for each patient (mean of genes in Table 2 minus mean of genes in Table 3). The score for each patient was compared to a reference population with the same diagnosis. […]

HL-60(TB) = assay: NCI60 panel growth inhibition; type: cell-based; settings: Homo sapiens; HL-60(TB) cell line
Experimental: The human tumor cell lines of the cancer screening panel may be grown in RPMI 1640 medium containing 5% fetal bovine serum and 2 mM L-glutamine. Cells may be inoculated into 96 well microtiter plates in 100 μL at plating densities ranging from 5,000 to 40,000 cells/well depending on the doubling time of individual cell lines. After cell inoculation, the microtiter plates may be incubated at 37° C., 5% CO2, 95% air and 100% relative humidity for 24 hours prior to addition of experimental compounds. After 24 hours, two plates of each cell line may be fixed in situ with TCA, to represent a measurement of the cell population for each cell line at the time of compound addition (Tz). Experimental compounds may be solubilized in dimethyl sulfoxide at 400-fold the desired final maximum test concentration and stored frozen prior to use. […] Bound stain may be subsequently solubilized with 10 mM trizma base, and the absorbance may be read on an automated plate reader at a wavelength of 515 nm. […] Using the seven absorbance measurements [time zero, (Tz), control growth, (C), and test growth in the presence of compound (e.g., dovitinib or a pharmaceutically acceptable salt thereof) at the five concentration levels (Ti)], the percentage growth may be calculated at each of the compound concentrations levels. […] The compound concentration resulting in total growth inhibition (TGI) is calculated from Ti=Tz. […]

## CN1CCN(c2ccc3nc(-c4c(N)c5c(F)cccc5[nH]c4=O)[nH]c3c2)CC1 [dovitinib, 4-amino-5-fluoro-3-[6-(4-methylpiperazin-1-yl)-1H-benzimidazol-2-yl]-1H-quinolin-2-one]
NCl-H460
  GI50: 468 nM
OVCAR-4
  GI50: 575 nM
A498
  GI50: 135 nM
MOLT-4
  GI50: 331 nM
DU-145
  GI50: 1150 nM
MALME-3M
  GI50: 490 nM
SK-MEL-2
  GI50: 891 nM
NCl-H226
  GI50: 355 nM
EKVX
  GI50: 7590 nM
SNB-75
  GI50: 977 nM
TK-10
  GI50: 7760 nM
A549/ATCC
  GI50: 562 nM
SK-MEL-5
  GI50: 1780 nM
U251
  GI50: 550 nM
HOP-62
  GI50: 1450 nM
CAKI-1
  GI50: 468 nM
T-47D
  GI50: 10000 nM
OVCAR-8
  GI50: 1450 nM
SNB-19
  GI50: 2630 nM
NCl-H322M
  GI50: 759 nM
K-562
  GI50: 550 nM
UACC-257
  GI50: 3390 nM
SW-620
  GI50: 550 nM
RXF 393
  GI50: 219 nM
SN12C
  GI50: 676 nM
OVCAR-5
  GI50: 1780 nM
ACHN
  GI50: 331 nM
MDA-MB-468
  GI50: 2570 nM
HT29
  GI50: 1410 nM
NCl/ADR-RES
  GI50: 2690 nM
COLO 205
  GI50: 2240 nM
PC-3
  GI50: 1120 nM
SR
  GI50: 447 nM
HOP-92
  GI50: 355 nM
M14
  GI50: 389 nM
786-0
  GI50: 724 nM
HCT-116
  GI50: 417 nM
UO-31
  GI50: 219 nM
IGROV1
  GI50: 251 nM
HS 578T
  GI50: 977 nM
NCl-H23
  GI50: 2450 nM
SF-539
  GI50: 427 nM
OVCAR-3
  GI50: 6760 nM
UACC-62
  GI50: 3630 nM
LOX IMVI
  GI50: 871 nM
SK-OV-3
  GI50: 513 nM
NCl-H522
  GI50: 3160 nM
MCF7
  GI50: 1170 nM
SF-268
  GI50: 2190 nM
BT-549
  GI50: 1050 nM
MDA-MB-435
  GI50: 1070 nM
MDA-MB-231/ATCC
  GI50: 2340 nM
CCRF-CEM
  GI50: 589 nM
HCC-2998
  GI50: 1320 nM
HCT-15
  GI50: 427 nM
SK-MEL-28
  GI50: 1480 nM
SF-295
  GI50: 6030 nM
KM12
  GI50: 41.7 nM
RPMI-8226
  GI50: 1480 nM
[1]; all five cohorts from Examples 2-6, patients at DRP cutoff of 50
  overall response rate (ORR=CR+PR): 26%
[1]; all five cohorts from Examples 2-6, patients at DRP cutoff of 80
  overall response rate (ORR=CR+PR): 35%
[1]; all five cohorts from Examples 2-6, without the DRP (breast cohort received dovitinib plus fulvestrant)
  average overall response rate (ORR=CR+PR): 16%
HL-60(TB)
  GI50: 1070 nM
